Earlier results in patent US20100092557A1 (priority 2006, published 2010).

Settings: general statement in the background; species and matrix not given

| half-life [h] | Compound |
| --- | --- |
| 68 | CCCCC1C(=O)N(c2ccccc2)N(c2ccccc2)C1=O [phenylbutazone] |
| 57 | CN1C(C(=O)Nc2ccccn2)=C(O)c2ccccc2S1(=O)=O [piroxicam] |
| 3.0 | CC(C(=O)O)c1ccc(C(=O)c2ccccc2)s1 (stereo not drawn) [tiaprofenic acid] |

Second part, the compound before the results:

| Compound | half-life [h] |
| --- | --- |
| O=C(O)Cc1ccccc1Nc1c(Cl)cccc1Cl [diclofenac] | 1.1 |
| O=C(O)c1ccccc1Nc1cccc(C(F)(F)F)c1 [flufenamic acid] | 1.4 |
| COc1ccc2c(c1)c(CC(=O)O)c(C)n2C(=O)c1ccc(Cl)cc1 [indomethacin] | 4.6 |
